Measured values from PubChem BioAssay AID652246 (Sanford-Burnham Center for Chemical Genomics, 2013).
Calls of active or inactive are those of the source. The rule behind the calls is not given here.

Each compound was assayed on HT1080 viability, ATPLite luminescence, overnight (assay: viability of HT1080 fibrosarcoma cells – cell-based, ATPLite luminescence, set 2, cytotoxicity control for MT1-MMP activation inhibitor project, dose response (AID 652246)).

Row | Structure (SMILES) | IC50
1 | Nc1nc(-c2ccccc2)c(N=Nc2ccccc2Cl)s1 | > 80 µM (inactive)
2 | COc1ccccc1N=Nc1nc(-c2ccccc2)c(-c2ccccc2)[nH]1 | > 80 µM (inactive)
3 | Cn1cccc1/C=C1/C(=O)NC(=S)N(Cc2ccc(F)cc2)C1=O | > 80 µM (inactive)
4 | CN1/C(=C\C=N\NC(=O)c2ccc(O)cc2)C(C)(C)c2ccccc21 | > 80 µM (inactive)
5 | CN1/C(=C\C(=O)c2cncc(Br)c2)C(C)(C)c2ccccc21 | 30.2 µM (inactive)
6 | C[n+]1c2ccccc2nc2ccc(NCCO)cc21 | > 80 µM (inactive)
7 | O=c1cc2oc3cc(O)c(O)cc3c(-c3ccccc3[N+](=O)[O-])c-2cc1O | > 80 µM (inactive)
8 | COc1cc(-c2cc(=O)c3c(O)c(OC)c(OC)cc3o2)cc(OC)c1O | > 80 µM (inactive)
9 | CN(CCCC(=O)O)c1ccc(N=Nc2ccc([N+](=O)[O-])cc2)cc1 | 15.8 µM
10 | Cc1c(C(=O)O)c(O)cc2c1C(=O)c1c(O)c([C@@H]3O[C@H](CO)[C@@H](O)[C@H](O)[C@H]3O)c(O)c(O)c1C2=O | > 80 µM (inactive)
11 | CC[n+]1c(/C=C/Nc2ccccc2)sc2ccccc21 | > 80 µM (inactive)
12 | CN1/C(=C/C=C/c2n(C)c3cc([N+](=O)[O-])c([N+](=O)[O-])cc3[n+]2C)C(C)(C)c2ccccc21 | 39.5 µM (inactive)
13 | CN(C)/C=C/c1oc2ccc(O)cc2c1[N+](=O)[O-] | > 80 µM (inactive)
14 | Cc1ccc(C(=O)NNc2c3ccccc3nc3ccccc23)cc1 | > 80 µM (inactive)
15 | CCN1C(=O)/C(=C2\C=Cc3ccccc3N2CC)SC1=S | > 80 µM (inactive)
16 | O=C(NNc1c2ccccc2nc2ccccc12)c1ccccc1O | > 80 µM (inactive)
17 | O=S(=O)(O)c1cc(O)c(N=Nc2ccc(O)cc2O)c2ccccc12 | 30.5 µM (inactive)
18 | COc1ccc(OCC(=O)NNc2c3ccccc3nc3ccccc23)cc1 | > 80 µM (inactive)
19 | COc1ccc2nc(-n3c(O)c(C4=c5ccccc5=NC4=O)[nH]c3=S)sc2c1 | > 80 µM (inactive)
20 | Oc1ccc(N=Nc2c(O)ccc3ccccc23)cc1 | 54.8 µM (inactive)
21 | O=c1ccc2c(-c3ccccc3S(=O)(=O)O)c3ccc(O)c(O)c3oc-2c1O | > 80 µM (inactive)
